The values that follow come from patent publication US12589156B2, “Benzimidazole and benzimidazolone based protac compounds for the targeted degradation of leucine rich repeat kinase 2 (LRRK2)” (Arvinas Operations, Inc., priority 2023, dated 2026).

In this assay the target is T1, WT LRRK2 (Homo sapiens, UniProt Q5S007).
T1 construct: endogenous in cells; host or cells: HEK293 (endogenous LRRK2 gene knock-in tagged with HiBit; stably expressing CMV-driven firefly luciferase)
Nature of the assay: LRRK2 HiBit degradation assay (Nano-Glo Dual Luciferase) in HEK293 cells with HiBit-tagged endogenous LRRK2. It counts as cell-based. The source says:
Biological Assays Exemplary Assay for Testing LRRK2 Degradation Driven by Exemplary Hetero-Bifunctional Compounds Designed to Target LRRK2
The assay measures the degradation of LRRK2 in cells where the C-terminus (3′) of the endogenous gene has been tagged with a HiBit sequence in HEK293 cells. The cells also express firefly lucisferase, expressed from a Cytomegalovirus promoter and introduced into the HiBit tagged cells and stably expressed. The Nano-Glo® Dual Luciferase Reporter Assay System (Promega™, Madison, WI) was utilized.
Day 1—Preparation of Compound and Assay Plates. Two sets of plates were prepared: a triplicate set for the HiBit assay in white 384-well plates and a triplicate set of plate in black 384-well plates for the Alamar Blue cell viability assay. Briefly, the growth media (DMEM+Glutamax-10% fetal bovine serum-1% Penicillin-Streptomicin) from two T128 flasks was aspirated from the flasks. Cells were washed with Dulbecco's Phosphate Buffered Saline (dPBS) and aspirated. Trypsin (3 mL per flask) was added and the flasks were incubated for 2-3 minutes.
Ten mL of OptiMEM—10% fetal bovine-1% penicillin-streptomycin (hereinafter, “OptiMEM media”) was added to the flask and the cells and transferred to a 50 ml conical tube. A cell count (25 ul of cell into Effendorf vial+25 ul of Trypan Blue Stain) was performed and the cell density adjusted to 15,000 cell/45 μl/well (3.33×10^5/mL) in OptiMEM media.
Forty-five microliters of the cell suspension (15,000 cells) was aliquoted to each well of the white 384-well plate. The plates incubated at room temperature for 10 minutes before being placed in the 37° C.+5% CO2 incubator overnight
Day 2—Compound Treatment. Exemplary compounds were prepared at a 1 mM starting concentration and 1:3 serial dilution for 11 points CRC prepared and stored in the freezer. The Master Compound Plate was thawed overnight at room temperature. DMSO (20 μL) was added into column 24 of the Master Compound Plate for negative control and 20 μL of 300 μM of Compound 4 in column 23 as positive control.
Intermediate Compound Plate with 4% DMSO in OptiMEM Media. DMSO was added to warm OptiMEM media to achieve a 4% DMSO solution (approximately 50 mL/plate). One-hundred microliters of the OptiMEM-4% DMSO was aliquoted to each well of 384-Well Deep Well Microplates.
The Master Compound Plate and the Intermediate Compound Plate were spun down.
One microliter of compound from the Master Compound Plate was transferred into the Intermediate plate (a 1:100 dilution). The diluted mixture was mixed and 5 μL transferred into the assay plate (a 1:10 dilution) for the final starting concentration of 1 μM. The Treated Assay plates were incubated for 24 hours at 37° C.+5% CO2. The Master Compound Plate was sealed and store at room temperature for a second run that was performed within a week.
One set of white assay plates was warmed to room temperature (45 minute).
The One Glo luciferase mixture was prepared. The media from white 384-well assay plates was aspirated. Twenty-five μL of the One Glo luciferase mixture was added to each well of the assay plates. The plates were incubated on the bench (room temperature) for 45 minutes, including 10 minutes of shaking at 700 rpm. The luminescence of each plate was read on a plate reader.
1:100 DLR substrate and 1:100 LgBiT Protein dilution were added to the Promega Stop and Glo buffer and mixed just before addition to assay plates. Twenty-five microliters of Stop and Glo mixture was added to each well. Assay plates incubated for at least 45 minutes, including 10 minutes of shaking at 700 rpm. The luminescence of each plate was read on a plate reader.
Analysis of LRRK2 HiBit Screening assays. As mentioned above, plates were run in triplicate and the assay repeated twice (total of 6 replicate for exemplary compounds). For each treatment, measurements were taken for firefly luciferase for cell number, cell viability (Alamar Blue), and Nanoluc for the LRRK2-HiBit quantification. […]

Where [1] appears, read: Table 2, HiBit-tagged LRRK2 in HEK293 cells, 24 hours treatment, starting concentration 1 μM.
Where [2] appears, read: Table 2, maximal degradation, HiBit-tagged LRRK2 in HEK293 cells, 24 hours treatment.
The mark [3] stands for this setting: HEK293, Table 2, maximal degradation, HiBit-tagged LRRK2 in HEK293 cells, 24 hours treatment.
[4] abbreviates: HEK293, Table 3, comparison with direct comparators, maximal degradation.
Setting [5] is: Table 3, comparison with direct comparators, HiBit-tagged LRRK2 in HEK293 cells, 24 hours treatment.

T1 sequence (Q5S007 whole entry): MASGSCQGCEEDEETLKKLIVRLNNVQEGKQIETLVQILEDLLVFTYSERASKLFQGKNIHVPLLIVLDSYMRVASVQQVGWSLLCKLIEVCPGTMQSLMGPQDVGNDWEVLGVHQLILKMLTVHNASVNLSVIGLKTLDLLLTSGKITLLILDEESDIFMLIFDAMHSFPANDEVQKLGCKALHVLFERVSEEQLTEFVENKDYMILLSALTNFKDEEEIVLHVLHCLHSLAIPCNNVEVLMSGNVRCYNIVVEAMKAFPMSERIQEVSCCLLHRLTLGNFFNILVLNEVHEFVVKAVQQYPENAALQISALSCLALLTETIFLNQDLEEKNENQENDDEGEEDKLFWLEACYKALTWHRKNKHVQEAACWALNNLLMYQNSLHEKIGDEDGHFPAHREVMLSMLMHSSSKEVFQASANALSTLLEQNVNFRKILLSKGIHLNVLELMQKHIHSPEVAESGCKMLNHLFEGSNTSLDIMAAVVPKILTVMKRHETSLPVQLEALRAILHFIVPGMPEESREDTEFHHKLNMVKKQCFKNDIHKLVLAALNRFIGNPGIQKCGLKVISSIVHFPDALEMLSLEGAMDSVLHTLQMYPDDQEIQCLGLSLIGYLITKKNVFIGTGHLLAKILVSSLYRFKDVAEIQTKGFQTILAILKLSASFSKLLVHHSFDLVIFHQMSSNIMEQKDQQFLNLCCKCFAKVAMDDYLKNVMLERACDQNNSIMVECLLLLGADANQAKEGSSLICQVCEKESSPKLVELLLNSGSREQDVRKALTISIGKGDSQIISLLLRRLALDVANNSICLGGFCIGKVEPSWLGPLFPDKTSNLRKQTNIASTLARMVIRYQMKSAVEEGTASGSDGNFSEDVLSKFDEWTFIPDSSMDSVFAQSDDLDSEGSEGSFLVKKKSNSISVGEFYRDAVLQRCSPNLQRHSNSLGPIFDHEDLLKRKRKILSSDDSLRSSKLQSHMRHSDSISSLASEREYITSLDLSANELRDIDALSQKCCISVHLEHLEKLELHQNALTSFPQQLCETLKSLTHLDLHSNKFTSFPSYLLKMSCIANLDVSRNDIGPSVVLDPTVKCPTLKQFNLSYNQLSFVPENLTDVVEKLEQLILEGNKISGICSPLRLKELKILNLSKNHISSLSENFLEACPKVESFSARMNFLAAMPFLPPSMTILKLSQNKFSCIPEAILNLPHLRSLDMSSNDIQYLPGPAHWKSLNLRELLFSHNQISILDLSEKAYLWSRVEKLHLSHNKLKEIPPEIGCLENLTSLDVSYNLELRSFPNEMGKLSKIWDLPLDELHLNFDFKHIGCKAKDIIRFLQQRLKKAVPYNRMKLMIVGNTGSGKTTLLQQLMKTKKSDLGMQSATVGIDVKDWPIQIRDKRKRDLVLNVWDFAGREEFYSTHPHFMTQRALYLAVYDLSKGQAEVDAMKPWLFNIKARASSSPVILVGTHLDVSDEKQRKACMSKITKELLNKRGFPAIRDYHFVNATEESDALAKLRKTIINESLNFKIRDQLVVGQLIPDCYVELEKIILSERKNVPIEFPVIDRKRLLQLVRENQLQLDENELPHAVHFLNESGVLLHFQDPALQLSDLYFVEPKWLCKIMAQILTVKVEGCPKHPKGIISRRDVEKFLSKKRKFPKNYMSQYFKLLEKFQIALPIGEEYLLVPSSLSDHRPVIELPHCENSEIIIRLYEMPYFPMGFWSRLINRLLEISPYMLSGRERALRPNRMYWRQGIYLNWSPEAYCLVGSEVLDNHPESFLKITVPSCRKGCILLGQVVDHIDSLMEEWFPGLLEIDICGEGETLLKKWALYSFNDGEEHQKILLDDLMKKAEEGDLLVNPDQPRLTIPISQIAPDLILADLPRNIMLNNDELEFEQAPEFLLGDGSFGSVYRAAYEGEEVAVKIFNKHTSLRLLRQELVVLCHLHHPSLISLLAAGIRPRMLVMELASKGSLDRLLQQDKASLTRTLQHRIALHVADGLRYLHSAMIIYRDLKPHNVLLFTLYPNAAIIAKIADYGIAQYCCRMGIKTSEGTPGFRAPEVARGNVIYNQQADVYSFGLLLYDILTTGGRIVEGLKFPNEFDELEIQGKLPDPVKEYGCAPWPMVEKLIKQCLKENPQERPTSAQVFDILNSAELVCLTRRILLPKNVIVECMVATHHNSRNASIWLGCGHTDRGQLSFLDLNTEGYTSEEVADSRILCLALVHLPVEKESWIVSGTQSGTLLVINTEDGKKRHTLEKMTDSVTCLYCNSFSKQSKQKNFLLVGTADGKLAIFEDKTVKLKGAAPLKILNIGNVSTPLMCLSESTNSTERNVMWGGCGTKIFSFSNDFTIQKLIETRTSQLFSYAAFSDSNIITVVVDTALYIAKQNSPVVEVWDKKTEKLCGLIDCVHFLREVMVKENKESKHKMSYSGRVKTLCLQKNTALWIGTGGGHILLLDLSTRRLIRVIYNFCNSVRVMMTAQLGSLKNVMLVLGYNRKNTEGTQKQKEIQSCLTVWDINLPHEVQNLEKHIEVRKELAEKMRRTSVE

As to `CC(C)Oc1cc2c(-c3cc(N4CCC(O[C@H]5C[C@H](OC6CCN(c7ccc8c(c7)n(C)c(=O)n8C7CCC(=O)NC7=O)CC6)C5)CC4)ncn3)n[nH]c2cn1` (single isomer, unassigned) [Compound 31, rel-3-(3-methyl-2-oxo-5-{4-[(1r,3r)-3-[(1-{6-[5-(propan-2-yloxy)-1H-pyrazolo[3,4-c]pyridin-3-yl]pyrimidin-4-yl}piperidin-4-yl)oxy]cyclobutoxy]piperidin-1-yl}-2,3-dihydro-1H-1,3-benzodiazol-1-yl)piperidine-2,6-dione], the DC50 (in general, the midpoint of the concentration-degradation curve) under setting [1] was 160 nM. Besides, the Dmax (usually the greatest extent of degradation seen) under setting [2] is 61%.
For the compound `Cn1c(=O)n(C2CCC(=O)NC2=O)c2cc(Br)c(N3CCC(O[C@H]4CC[C@H](CN5CCN(c6cc(-c7n[nH]c8cnc(OC9(C)CC9)cc78)ncn6)CC5)CC4)CC3)cc21` (single isomer, unassigned) [Compound 67, rel-3-[6-bromo-3-methyl-2-oxo-5-(4-{[(1r,4r)-4-[(4-{6-[5-(1-methylcyclopropoxy)-1H-pyrazolo[3,4-c]pyridin-3-yl]pyrimidin-4-yl}piperazin-1-yl)methyl]cyclohexyl]oxy}piperidin-1-yl)-2,3-dihydro-1H-1,3-benzodiazol-1-yl]piperidine-2,6-dione], the Dmax under setting [3] worked out at 90%. In addition, under setting [1], it took 5.9 nM to reach half-maximal degradation (DC50).
`CC(C)n1c(=O)n(C2CCC(=O)NC2=O)c2ccc(N3CCC(O[C@H]4CC[C@H](CN5CCN(c6cc(-c7n[nH]c8ccc(OC(C)(C)C)cc78)ncn6)CC5)CC4)CC3)cc21` (single isomer, unassigned) [Compound 56, rel-3-[2-oxo-3-(propan-2-yl)-5-(4-{[(1r,4r)-4-[(4-{6-[5-(tert-butoxy)-1H-indazol-3-yl]pyrimidin-4-yl}piperazin-1-yl)methyl]cyclohexyl]oxy}piperidin-1-yl)-2,3-dihydro-1H-1,3-benzodiazol-1-yl]piperidine-2,6-dione]: the Dmax under setting [3] worked out at 43%. Under setting [1], this compound showed a DC50 of 0.95 nM.
Turning to `Cc1nc2cc(N3CCC(CN4CCN(CC5CCN(c6cc(-c7n[nH]c8ccc(OC9(C)CC9)cc78)ncn6)CC5)C(C)(C)C4)CC3)ccc2n1C1CCC(=O)NC1=O` (stereo not drawn) [Compound 38, 3-{5-[4-({3,3-dimethyl-4-[(1-{6-[5-(1-methylcyclopropoxy)-1H-indazol-3-yl]pyrimidin-4-yl}piperidin-4-yl)methyl]piperazin-1-yl}methyl)piperidin-1-yl]-2-methyl-1H-1,3-benzodiazol-1-yl}piperidine-2,6-dione], the Dmax was 53% under setting [3] and 53% under setting [4]. The DC50 is, setting by setting: under setting [1], 1.2 nM; under setting [5], 1.2 nM.
Consider `CC(C)n1c(=O)n(C2CCC(=O)NC2=O)c2ccc(N3CCC(O[C@H]4CC[C@H](CN5CCN(c6cc(-c7n[nH]c8cnc(OC9(C)CC9)cc78)ncn6)CC5)CC4)CC3)cc21` (single isomer, unassigned) [Compound 52, rel-3-[2-oxo-3-(propan-2-yl)-5-(4-{[(1r,4r)-4-[(4-{6-[5-(1-methylcyclopropoxy)-1H-pyrazolo[3,4-c]pyridin-3-yl]pyrimidin-4-yl}piperazin-1-yl)methyl]cyclohexyl]oxy}piperidin-1-yl)-2,3-dihydro-1H-1,3-benzodiazol-1-yl]piperidine-2,6-dione], for which the Dmax under setting [3] amounted to 53%. Also, it took 0.28 nM to reach half-maximal degradation under setting [1] (DC50).
In the case of `Cn1c(=O)n(C2CCC(=O)NC2=O)c2cccc(N3CCC(CN4CCN(CC5CCN(c6cc(-c7n[nH]c8ccc(OC9(C)CC9)cc78)ncn6)CC5)C(C)(C)C4)CC3)c21` (stereo not drawn) [Compound 8, 3-{4-[4-({3,3-dimethyl-4-[(1-{6-[5-(1-methylcyclopropoxy)-1H-indazol-3-yl]pyrimidin-4-yl}piperidin-4-yl)methyl]piperazin-1-yl}methyl)piperidin-1-yl]-3-methyl-2-oxo-2,3-dihydro-1H-1,3-benzodiazol-1-yl}piperidine-2,6-dione], the Dmax runs as follows: under setting [3], 65%; under setting [4], 65%. Besides, the DC50 under setting [1] came out at 1.2 nM and the DC50 under setting [5] amounted to 1.2 nM.
Turning to `Cn1c(=O)n(C2CCC(=O)NC2=O)c2ccc(N3CCC(CN4CCN(CC5CCN(c6cc(-c7n[nH]c8cnc(OC9(C)CC9)cc78)ncn6)CC5)C(C)(C)C4)CC3)cc21` (stereo not drawn) [Compound 48, 3-{5-[4-({3,3-dimethyl-4-[(1-{6-[5-(1-methylcyclopropoxy)-1H-pyrazolo[3,4-c]pyridin-3-yl]pyrimidin-4-yl}piperidin-4-yl)methyl]piperazin-1-yl}methyl)piperidin-1-yl]-3-methyl-2-oxo-2,3-dihydro-1H-1,3-benzodiazol-1-yl}piperidine-2,6-dione], the Dmax runs as follows: under setting [3], 56%; under setting [4], 56%. Also, the DC50 under setting [1] came out at 0.14 nM and it took 0.14 nM to reach half-maximal degradation under setting [5] (DC50).
With `Cn1c(=O)n(C2CCC(=O)NC2=O)c2ccc(N3CCC(O[C@H]4C[C@H](CN5CCN(c6cc(-c7n[nH]c8cnc(OC9(C)CC9)cc78)ncn6)CC5)C4)CC3)cc21` (single isomer, unassigned) [Compound 35, rel-3-(3-methyl-2-oxo-5-{4-[(1r,3r)-3-[(4-{6-[5-(1-methylcyclopropoxy)-1H-pyrazolo[3,4-c]pyridin-3-yl]pyrimidin-4-yl}piperazin-1-yl)methyl]cyclobutoxy]piperidin-1-yl}-2,3-dihydro-1H-1,3-benzodiazol-1-yl)piperidine-2,6-dione], the Dmax under setting [3] turned out to be 50%. This compound returned a DC50 under setting [1] of 0.052 nM.
The compound `CC(C)n1c(=O)n(C2CCC(=O)NC2=O)c2ccc(N3CCC(OC4CCC(OC5CCN(c6cc(-c7n[nH]c8cnc(OC9(C)CC9)cc78)ncn6)CC5)CC4)CC3)cc21` (stereo not drawn) [Compound 26, rel-3-[2-oxo-3-(propan-2-yl)-5-(4-{[(1r,4r)-4-[(1-{6-[5-(1-methylcyclopropoxy)-1H-pyrazolo[3,4-c]pyridin-3-yl]pyrimidin-4-yl}piperidin-4-yl)oxy]cyclohexyl]oxy}piperidin-1-yl)-2,3-dihydro-1H-1,3-benzodiazol-1-yl]piperidine-2,6-dione] had a DC50 under setting [1] of 1.1 nM. The “WT LRRK2 **Dmax (%)” value under setting [2] turned out to be 69%.
`CC1(Oc2ccc3[nH]nc(-c4cc(N5CCC(CN6CCN(CC7CCN(c8ccc9ncn(C%10CCC(=O)NC%10=O)c9c8)CC7)CC6)CC5)ncn4)c3c2)CC1` (stereo not drawn) [Compound 7, 3-{6-[4-({4-[(1-{6-[5-(1-methylcyclopropoxy)-1H-indazol-3-yl]pyrimidin-4-yl}piperidin-4-yl)methyl]piperazin-1-yl}methyl)piperidin-1-yl]-1H-1,3-benzodiazol-1-yl}piperidine-2,6-dione] displayed a Dmax under setting [3] of 64%. Also, the DC50 under setting [1] was found to be 6.4 nM.
Consider `CC1(Oc2ccc3[nH]nc(-c4cc(N5CCC(CN6CCN(CC7CCN(c8ccc9c(c8)ncn9C8CCC(=O)NC8=O)CC7)CC6(C)C)CC5)ncn4)c3c2)CC1` (stereo not drawn) [Compound 13, 3-{5-[4-({3,3-dimethyl-4-[(1-{6-[5-(1-methylcyclopropoxy)-1H-indazol-3-yl]pyrimidin-4-yl}piperidin-4-yl)methyl]piperazin-1-yl}methyl)piperidin-1-yl]-1H-1,3-benzodiazol-1-yl}piperidine-2,6-dione], for which the Dmax was determined as 64% under setting [3] and 64% under setting [4]. In addition, the DC50 is, setting by setting: under setting [1], 1 nM; under setting [5], 1 nM.
